From patent US9682090B2, “Methods for treating and preventing prostate cancer bone metastases” (University of Washington, priority 2014, dated 2017)

Assays:
PAP [1] = target: T1, PAP (Homo sapiens, UniProt P15309); settings: Vovk et al. 2008; cited from earlier work
T1 sequence (P15309 33-386): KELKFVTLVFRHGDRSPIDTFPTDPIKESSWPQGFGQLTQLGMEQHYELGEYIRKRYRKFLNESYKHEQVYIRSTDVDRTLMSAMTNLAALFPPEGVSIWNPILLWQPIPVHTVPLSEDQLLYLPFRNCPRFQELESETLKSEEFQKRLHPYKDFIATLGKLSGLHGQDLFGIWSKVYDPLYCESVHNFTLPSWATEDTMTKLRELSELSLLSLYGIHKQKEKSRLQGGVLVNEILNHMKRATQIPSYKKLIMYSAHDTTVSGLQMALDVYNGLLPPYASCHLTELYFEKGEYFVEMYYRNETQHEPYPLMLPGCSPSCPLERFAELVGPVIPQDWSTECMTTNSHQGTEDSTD

MC3T3-E1 cells [2] = assay: Alizarin Red mineralization assay in MC3T3-E1 cells; type: cell-based, mouse; settings: PA 25 μM down to 0.2 μM, MC3T3-E1 cells without PAP
MC3T3-E1 cells [3] = assay: Inhibition of LuCaP 23.1 CM-induced mineralization in MC3T3-E1 cells (Alizarin Red); type: cell-based, mouse; settings: 5 μM PA
Protocol: (§1) Cultured cells, HCO or MC3T3-E1, were seeded at 50,000 cells/well in MEM and 10% FBS. MM was added to all cultures 1-2 days after seeding and replaced every other day. MM, LuCaP 23.1 CM (5%, 10%, or 20%), PAP, lyophilized powder obtained from human prostatic fluid (CSI 14633A; CELL SCIENCES®, Canton, Mass.) or phosphonic acid, P-[phenyl[(phenylmethyl)amino]methyl]- (CAS#25881-35-0; AURORA FINE CHEMICALS™ LLC, San Diego, Calif.) was added to cultures typically on day 5-6, before mineralization occurred. After mineralization, cells were fixed in 10% formalin for 20 minutes and then washed. 2% Alizarin Red was added to air-dried plates. After washing, retained dye was extracted in a solution of 20% methanol and 10% acetic acid in water, and absorbance was measured at 405 nm.
(§2) The benzylaminophosphonic acids are inhibitors of PAP (see Beers S A, et al. (1996) Bioorg Med Chem 4:1693-1701). […] To determine if PA would reduce LuCaP 23.1 CM associated mineralization, MC3T3-E1 cells were treated with 5% to 20% LuCaP 23.1 CM with 5 μM PA.

PAP [4] = target: T1, PAP; assay: Inhibition of PAP-induced mineralization in MC3T3-E1 cells (Alizarin Red); type: cell-based; design: PAP, lyophilized powder obtained from human prostatic fluid; purchased CELL SCIENCES, Canton, Mass; CSI 14633A; host or cells: natural protein from human prostatic fluid; added to mouse MC3T3-E1 cells; settings: MC3T3-E1 cells treated with 0.05 units of PAP
Protocol: as §1, §2

SMILES	PAP inhibition (PAP [1])	inhibition of mineralization by PA alone (MC3T3-E1 cells [2])	effect on mineralization (MC3T3-E1 cells [3]; 5% LuCaP 23.1 CM)	effect on mineralization (MC3T3-E1 cells [3]; 10% LuCaP 23.1 CM)	effect on mineralization (MC3T3-E1 cells [3]; 20% LuCaP 23.1 CM)	decrease in mineralization (PAP [4]; 3.15 μM PA) [%]	decrease in mineralization (PAP [4]; 6.25 μM PA) [%]	decrease in mineralization (PAP [4]; 12.5 μM PA) [%]	decrease in mineralization (PAP [4]; 25 μM PA) [%]	lowest PA concentration with significant effect on mineralization (PAP [4]; PA tested 25 μM to 0.2 μM) [µM]
O=P(O)(O)[C@@H](NCc1ccccc1)c1ccccc1 (single isomer, unassigned) [R enantiomer of P-[phenyl[(phenylmethyl)amino]methyl]-, P-[phenyl[(phenylmethyl)amino]methyl]-]	potent inhibitor	–	–	–	–	–	–	–	–	–
O=P(O)(O)C(NCc1ccccc1)c1ccccc1 (stereo not shown) [PA, [phenyl[(phenylmethyl)amino]methyl]-phosphonic acid]	–	No significant inhibition	significantly reduced mineralization	significantly reduced mineralization	significantly reduced mineralization	97.9	92.1	95.6	97.6	0.4
